Assay results published in publication PMC6110851, “An Optimized MicroPET Imaging Method for the Distribution and Synergies of Natural Products” (Frontiers in Pharmacology, 2018).

Assays:
[1] = MicroPET biodistribution of [^18F]-GA in mice; type: in vivo
Description: The mice were grouped by weight and housed in cages of the climate control room (25°C), with a photoperiod 12:12-h. During feeding, mice were free to access food and water. Mice were fasted for 24 h before the experiment. The mice were anesthetized with 4% isoflurane while preparing for scanning ([Constantinescu et al., 2013b]; [Cui et al., 2017]). Eighteen healthy male Kunming mice, weighing 20 ± 2 g, were divided into three groups, which were control group, once-administered (OA) group and long-term administration (LA) group. In the OA group, 1 h before the administration of [^18F]-GA, the mice were orally treated with PG polysaccharides. In the LA group, the mice were orally given the PG polysaccharides for 7 days, but not before the administration of [^18F]-GA.
Rice received a tail vein injection (8.67 ± 2.14 MBq/μg) of [^18F]-GA and placed in the scanner bed and mouse-imaging room immediately ([Constantinescu et al., 2013b]; [O’Doherty et al., 2017]). Firstly, 2 h PET scanning was performed using an Inveon-dedicated PET scanner. The average delay between injection and starting of PET scanning was 3.5 min. Rice were maintained stable under 4% isoflurane anesthesia throughout scanning. The PET list-mode data were dynamically classified into 23 3D sinograms of span and three ring difference. After Fourier recombination, the data were reconstructed using a 2D ordered-subset expectation maximization algorithm. Random events were excluded before reconstruction. The response of detector is normalized using a component-based approach. All dynamic images were corrected for radioactive decay automatically. The PET images were reconstructed by a cone beam algorithm into 480 × 480 × 632 image arrays. After the reconstruction, images were spatially transformed to match the PET images ([Constantinescu et al., 2013a],[b]).
The reconstruction of the image was performed using the PMOD software (PMOD Technologies). The 3D volumes of interest (VOIs) were drawn manually of the following organs: brain, heart, liver, lungs, kidneys, cortical bone, and gallbladder. The organs were carefully identified and VOIs were drawn as irregular contours on high-resolution PET images obtained from each mouse ([Constantinescu et al., 2013b]; [Garg et al., 2017]). The size of each VOI was less than the actual size of each organ to minimize the effects of PET on adjacent organ spills. The VOIs drawing was verified by a second operator. The VOIs of cortical bone were generated by first using PET image to depict the entire femur bone ([Constantinescu et al., 2013b]). The VOI was transferred to a dynamic PET image and the mean time-activity curve (TAC) of the decay correction was extracted for each target organ ([Constantinescu et al., 2013b]).

NF-κB = NF-κB dual luciferase reporter assay in TNF-stimulated HEK 293 T cells; type: cell-based; conditions: 10 μmol/L, HEK 293T stimulated by TNF-α, P < 0.05
Description: The separation process was repeated five times for use in the activity tests. […] After 48 h, radioactive elements had decayed, the residues were stored at 4°C for anti-inflammatory activity tests ([Dong et al., 2013]; [Qingxin et al., 2016]).
HEK 293 T cells were cultured in standard Dulbecco’s modified Eagle’s medium (DMEM; Hyclone) supplemented with 10% fetal bovine serum (FBS; Biological Industries). The cells were placed in 96-well plates at 37°C in an air-CO2 environment (95/5% v/v). Cells were grown to 80–90% confluence and incubated for 12 h in DMEM without FBS. Transfection (20 h) was performed according to the manufacturer’s instructions. HEK 293 T cells were pretreated with drugs 1 h prior to TNF-stimulation (5 ng/mL) for 6 h. Dex (10^-5mol/L) was used as a positive control for NF-κB inhibition. The NF-κB activity was assayed using dual luciferase reporter assay system (Promega) according to the manufacturer’s instructions ([Qingxin et al., 2016]). Antiinflammatory activity was calculated as the ratio of firefly luciferase activity to Renilla luciferase activity (internal control).

Structure (SMILES)	passage of the blood brain barrier ([1]; mice, concluded from brain concentrations)	concentration in the brain of the mouse ([1]; results obtained from PET)	NF-κB inhibitory effect (NF-κB)
CC1(C)[C@@H](O)CC[C@]2(C)[C@H]3C(=O)C=C4[C@@H]5C[C@@](C)(C(=O)O)CC[C@]5(C)CC[C@@]4(C)[C@]3(C)CC[C@@H]12 [GA, Glycyrrhetic acid, reference compound]	could not pass the blood brain barrier	very low, almost undetectable	
C[C@@H]1C[C@H]2[C@@H]3CCC4=CC(=O)C=C[C@]4(C)[C@@]3(F)[C@@H](O)C[C@]2(C)[C@@]1(O)C(=O)CO [Dex, reference compound]			significant NF-κB inhibitory effects
